≈ marks a conversion by molar mass, not a printed value. Read-outs that look alike come from different tables or passages of the source.

The values below come from US5013841A, “Oxo quinoline derivatives” (Dainippon Pharmaceutical Co., Ltd., priority 1987, dated 1991).

Data set [1] can be described thus: Acute oral toxicity in mice. The following applies: mouse, in vivo, male mice (ddY), 7 days, Behrens-Kaerber method, read-out: median lethal dose (LD50). As for the experimental part: A suspension containing each of compounds of this invention in various concentrations was orally given to male mice (ddY) at a dose of 0.1 ml per 10 g of body weight. The number of dead mice was counted after 7 days, and the value of median lethal dose (LD50, mg/kg) was calculated in accordance with the Behrens-Kaerber method.

In the next data set the test system is E. coli P-5101. Description: In vitro antibacterial activity (twofold agar-dilution method). The following applies: Escherichia coli, P5101; E. coli P-5101; agar dilution, 20 h, 37° C., calculated for free base; read-out: minimum inhibitory concentration (MIC). The format is cell-based. As for the experimental part: (§1) The figures in the table show minimum inhibitory concentrations (MIC) (μg/ml), calculated for free base. The minimum inhibitory concentration was determined by the twofold agar-dilution method, which was recommended by Japan Society of Chemotherapy (Chemotherapy, 29(1), 76(1981)), using Muller-Hinton agar. One loopful of an overnight culture of test organisms in Mueller-Hinton broth was inoculated onto 10-ml drug-containing agar layers in petri dishes. Bacterial inocula contained approximately 10^6 colonyl-formingunits. Bacterial growth was observed after 20-hour incubation at 37° C. The MIC was defined as the lowest drug concentration which prevented visible bacterial growth.

Another data set relates to S. marcescens IFO 3736. The data set is described as above. In kind it is cell-based. Particulars: Serratia marcescens, IFO3736; S. marcescens IFO 3736; agar dilution, 20 h, 37° C., calculated for free base; read-out: minimum inhibitory concentration (MIC). As for the experimental part:
as §1

Another data set concerns S. pyogenes Cook. The data set is described as above. The format is cell-based. The following applies: Streptococcus pyogenes, 20 h, 37° C., calculated for free base, read-out: minimum inhibitory concentration (MIC). As for the experimental part: as §1
The next data set concerns S. aureus No. 80. The data set is described as above. In kind it is cell-based. Particulars: Staphylococcus aureus; S. aureus No. 80; agar dilution, 20 h, 37° C., calculated for free base; read-out: minimum inhibitory concentration (MIC). As for the experimental part: as §1
In a further data set the test system is Flavobacterium sp P-7201. Described as above. The format is cell-based. Particulars: read-out: minimum inhibitory concentration (MIC). As for the experimental part: as §1
Data set [2] concerns Staphylococcus aureus 50774. In kind it is in vivo, Staphylococcus aureus (male mice, Std-ddY). The following applies: Staphylococcus aureus, 50774, 336 h; mice, oral, twice (immediately and 6 h after intravenous infection), 14 days, calculated for free base; read-out: median effective dose (ED50). The text has this:
Staphylococcus aureus 50774
Intravenous infection with 5×10^8 cells per mouse suspended in saline.
For 7 days for other organisms.

A short description of data set [3]: Urinary excretion in mice (thin-layer cup-plated method, Escherichia coli Kp indicator). In kind it is in vivo. Particulars: mouse, urine, oral, 5 mg/kg, read-out: Urinary recovery for 24 hours. As for the experimental part:
A suspension containing each of compounds was orally administered to mice at a dose of 5 mg/kg. Urine was collected over a period of 24 hours after adminstration. The levels of the compounds in urine were determined by the thin-layer cup-plated method using Escherichia coli Kp as an indicator organism.

Data set [4] has as its system Pseudomonas aeruginosa 12. Particulars: Pseudomonas aeruginosa, 12, in Mus musculus, po, 168 h, read-out: median effective dose (ED50).
Data set [5] relates to Streptococcus pneumoniae 1 Neufeld. The format is in vivo, Streptococcus pneumoniae (male mice, Std-ddY). Particulars: 336 h, mice, oral, four times (immediately, 6, 24 and 30 h after intraperitoneal infection), 14 days, calculated for free base, read-out: median effective dose (ED50).
Data set [6] concerns Streptococcus pyogenes A65. Particulars: A65, in Mus musculus, po, 168 h, read-out: median effective dose (ED50).

As a reminder, the LD50 is the dose expected to kill half of the subjects tested. Consider `Nc1c(F)c(N2CCNCC2)cc2c1c(=O)c(C(=O)O)cn2C1CC1` [Compound 1], for which the LD50 at 168 h in data set [1] is above 2000 mg/kg. In addition, the MIC in the data set with E. coli P-5101 is 0.0063 µg/mL (≈ 0.0182 µM); in the data set on S. marcescens IFO 3736 it was 0.1 µg/mL (≈ 0.289 µM); in the data set on S. pyogenes Cook, 0.2 µg/mL (≈ 0.577 µM); with S. aureus No. 80 it was 0.05 µg/mL (≈ 0.144 µM); in the data set on Flavobacterium sp P-7201 (P7201, Flavobacterium sp P-7201, agar dilution, 20 h, 37° C., calculated for free base), 0.1 µg/mL (≈ 0.289 µM).
For orientation: ED50 means the dose at which the effect has come halfway, by size or by number of responders. On to `C[C@@H]1CN(c2cc3c(c(N)c2F)c(=O)c(C(=O)O)cn3C2CC2)C[C@H](C)N1` [Compound 2, 5-amino-1-cyclopropyl-6-fluoro-7-(cis-3,5-dimethyl-1-piperazinyl)-1,4-dihydro-4-oxoquinoline-3-carboxylic acid], for which the ED50 in data set [2] was 1.41 mg/kg; in data set [4], 1.98 mg/kg; in data set [5], 10.2 mg/kg; in data set [6], 11.6 mg/kg. For the same molecule, the LD50 at 168 h in data set [1] is above 2000 mg/kg. Moreover, in [3], the dose excreted at 24 h came out at 8.33%. Moreover, the MIC with E. coli P-5101 was 0.025 µg/mL (≈ 0.0668 µM); in the data set on S. marcescens IFO 3736 it was 0.78 µg/mL (≈ 2.08 µM); with S. pyogenes Cook, 0.39 µg/mL (≈ 1.04 µM); in the data set on S. aureus No. 80, 0.025 µg/mL (≈ 0.0668 µM); in the data set on Flavobacterium sp P-7201 (Flavobacterium, P7201, 20 h), 0.1 µg/mL (≈ 0.267 µM).
